Data on 1 compound can be found in US20090036424A1, “ASSOCIATION BETWEEN HLA-DRBI*07 ALLELE AND SUSCEPTIBILY TO INCREASED LEVELS OF ALAT FOLLOWING XIMELAGATRAN ADMINISTRATION” (AstraZeneca AB, priority 2005, published 2009).

The subject of the data set is alanine aminotransferase (ALAT). Briefly: ALAT elevation during longer-term ximelagatran treatment in clinical trials. It is filed as in vivo, human. The source says: Phase III clinical trials have been performed using fixed doses of melagatran and ximelagatran for the prevention of VTE in hip or knee replacement surgery. In addition, clinical trials have been performed using ximelagatran for the treatment and long-term secondary prevention of VTE, and for the prevention of stroke in patients with non-valvular atrial fibrillation. Ximelagatran has also been tested for secondary thrombosis prophylaxis post-myocardial infarction/acute coronary syndrome (ACS).
Alanine aminotransferase (ALAT) is an enzyme mostly expressed in the liver (EC 2.6.1.2). It is also called serum glutamate pyruvate transaminase (SGPT) or alanine transaminase (ALT). This enzyme is released into the plasma by liver cell death, which is a normal event. However, when liver cell death increases, ALAT levels rise above the normal range. The spill-over of this enzyme into blood is routinely measured as a marker of abnormal liver-cell damage. For example, alcoholic or viral hepatitis will increase ALAT levels, as will severe congestive heart failure. An elevated ALAT in the presence of normal levels of plasma alkaline phosphatase helps distinguish liver disease caused by liver-cell damage from diseases caused by problems in biliary ducts.
Elevations of ALAT are normally measured in multiples of the upper limit of normal (ULN), with a reference range of 15-45 U/L in most laboratories. In 1987, in a study of 19,877 healthy Air Force recruits, only 99 (0.5%) had confirmed ALAT elevations (as reviewed in Green & Flamm (2002) Gastroenterology 123:1367-1384).
The increase in ALAT values with ximelagatran usually occurred within the first 6 months of treatment and were mainly asymptomatic. […] Subject to the future regulatory approval of ximelagatran, regular liver function testing (LFT) using an appropriate algorithm may be required if ximelagatran is used for treatment periods exceeding a month. Studies are currently ongoing to try and establish the mechanism of the ALAT elevations, and their hepatic and overall clinical significance.

For the compound `CCOC(=O)CN[C@@H](C(=O)N1CC[C@H]1C(=O)NCc1ccc(/C(N)=N\O)cc1)C1CCCCC1` [ximelagatran, EtOOC—CH2—(R)Cgl-Aze-Pab-OH], the “patients exhibiting levels of alanine aminotransferase (ALAT) 3-fold or more above the upper limit of normal (≧3×ULN)” value (longer-term treatment (>35 days), 1.2% in the comparator groups) is recorded as 7.9%. For the setting “regardless of whether treatment was continued or discontinued”, the “reversibility of ALAT increases” value is listed as “reversible in most patients”. The “time of occurrence of the increase in ALAT values” (usually, from start of treatment, mainly asymptomatic) is at most 6 months.
